# Assays:
# [1] = molecular target: T1, purified recombinant Cdc25-C enzyme (MBP-Cdc25C protein) (Homo sapiens, UniProt P30307); assay: Phosphatase activity of the purified recombinant Cdc25C enzyme (OMFP dephosphorylation, fluorescence); format: biochemical; conditions: OMFP 500 μM, 4 hours at 30° C.
# T1 construct: made in house
# T1 sequence (P30307 1-473): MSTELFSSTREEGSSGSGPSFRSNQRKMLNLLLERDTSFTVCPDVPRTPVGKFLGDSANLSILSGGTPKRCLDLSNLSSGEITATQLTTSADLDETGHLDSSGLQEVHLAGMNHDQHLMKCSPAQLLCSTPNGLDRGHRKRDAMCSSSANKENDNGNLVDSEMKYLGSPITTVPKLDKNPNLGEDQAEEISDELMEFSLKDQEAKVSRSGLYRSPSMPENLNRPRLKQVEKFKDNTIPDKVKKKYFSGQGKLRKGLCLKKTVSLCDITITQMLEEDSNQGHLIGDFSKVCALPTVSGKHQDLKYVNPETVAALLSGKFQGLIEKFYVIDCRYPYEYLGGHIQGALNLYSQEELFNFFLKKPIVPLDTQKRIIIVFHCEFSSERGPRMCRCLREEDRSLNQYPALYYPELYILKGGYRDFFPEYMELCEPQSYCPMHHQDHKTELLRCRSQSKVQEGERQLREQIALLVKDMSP
# Procedure, shortened: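 MBP-Cdc25C fusion protein in 50 mM Tris-HCl pH 8.2, 50 mM NaCl, 1 mM DTT, 20% glycerol; reaction started with 500 μM OMFP (final). Compounds tested at decreasing concentrations from 40 μM; 4 h at 30 °C, OMF fluorescence read at 475 nm. IC50 from three independent experiments by linear regression over the linear part of the sigmoid.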
# [2] = system: Mia-PaCa2 (human pancreas cancer cells); assay: Anti-proliferative activity on Mia-Paca2 cell line (WST1 colorimetric test); format: cell-based; conditions: MIA PaCa-2, 96 h, 96 hours treatment, read-out: IC50 on proliferation of the Mia-Paca2 cell line
# Protocol: (§1) By way of an example, the effect of treating two human cell lines Mia-Paca2 and DU145 with the compounds of the examples described hereinbefore will be studied. The cell lines DU145 (human prostate cancer cells) and Mia-PaCa2 (human pancreas cancer cells) were obtained from the American Tissue Culture Collection (Rockville, Md., USA). A 96-well plate was inoculated on day 0 with cells placed in 80 μl of Dulbecco's modified Eagle's medium (Gibco-Brl, Cergy-Pontoise, France) with 10% heat-inactivated foetal calf serum (Gibco-Brl, Cergy-Pontoise, France), 50000 units/1 of penicillin and 50 mg/l of streptomycin (Gibco-Brl, Cergy-Pontoise, France), and 2 mM of glutamine (Gibco-Brl, Cergy-Pontoise, France). The cells were treated on day 1 with increasing concentrations of each test compound up to 10 μM for 96 hours. At the end of this period, cell proliferation is quantified by means of a colorimetric test based on cleavage of the tetrazolium salt WST1 by the mitochondrial dehydrogenases in the viable cells, resulting in formation of formazan (Boehringer Mannheim, Meylan, France). These tests are performed in duplicate with 8 determinations per concentration tested. For each compound to be tested, the values within the linear part of the sigmoid curve were subjected to linear regression analysis and used to estimate the IC50 inhibitory concentration. The products are solubilised in dimethylsulfoxide (DMSO) at a concentration of 10^−2 M and used in culture with a final DMSO concentration of 0.1%.
# [3] = system: DU145 (human prostate cancer cells); assay: Anti-proliferative activity on DU-145 cell line (WST1 colorimetric test); format: cell-based; conditions: DU-145, 96 h, 96 hours treatment, read-out: IC50 on the proliferation of the DU-145 cell line
# Protocol: as §1
Structure (SMILES),melting point,IC50 [1],IC50 [2],IC50 [3]
"CN(CCNC(=S)NCc1ccc(F)cc1)CCNc1cc(N2CCCC2)nc(N2CCCC2)n1 [Example 46, N-{2-[{2-[(2,6-dipyrrolidin-1-ylpyrimidin-4-yl)amino]ethyl}(methyl)amino]ethyl}-N′-(4-fluorobenzyl)thiourea]",64 to 66 °C,≤ 1 µM,≤ 5 µM,≤ 5 µM
"CN(CCNC(=S)Nc1ccc(S(=O)(=O)N2CCCCC2)cc1)CCNc1cc(N2CCCC2)nc(N2CCCC2)n1 [Example 27, N-{2-[{2-[(2,6-dipyrrolidin-1-ylpyrimidin-4-yl)amino]ethyl}(methyl)amino]ethyl}-N′-[4-(piperidin-1-ylsulfonyl)phenyl]thiourea]",120 to 122 °C,≤ 5 µM,≤ 5 µM,≤ 5 µM
"CN(CCNC(=O)Nc1cccc2nsnc12)CCNc1cc(N2CCCC2)nc(N2CCCC2)n1 [Example 15, N-2,1,3-benzothiadiazol-4-yl-N′-{2-[{2-[(2,6-dipyrrolidin-1-ylpyrimidin-4-yl)amino]ethyl}(methyl)amino]ethyl}urea]",126 to 128 °C,≤ 1 µM,≤ 5 µM,≤ 5 µM
"CN(CCCNC(=O)Nc1ccc(Cl)c(C(F)(F)F)c1)CCCNc1cc(N2CCCC2)nc(N2CCCC2)n1 [Example 21, N-[4-chloro-3-(trifluoromethyl)phenyl]-N′-{3-[{3-[(2,6-dipyrrolidin-1-ylpyrimidin-4-yl)amino]propyl}(methyl)amino]propyl}urea]",,≤ 5 µM,≤ 5 µM,≤ 5 µM
"CN(CCNC(=S)NCc1ccco1)CCNc1cc(N2CCCC2)nc(N2CCCC2)n1 [Example 29, N-{2-[{2-[(2,6-dipyrrolidin-1-ylpyrimidin-4-yl)amino]ethyl}(methyl)amino]ethyl}-N′-(2-furylmethyl)thiourea]",,≤ 5 µM,≤ 5 µM,≤ 5 µM

# Next, values leading:
melting point,IC50 [1],IC50 [2],IC50 [3],Structure (SMILES)
127 to 129 °C,≤ 5 µM,≤ 5 µM,≤ 5 µM,"CN(CCNC(=S)Nc1ccc(Cl)cc1)CCNc1cc(N(C)C)nc(N(C)C)n1 [Example 73, N-{2-[(2-{[2,6-bis(dimethylamino)pyrimidin-4-yl]amino}ethyl)(methyl)amino]ethyl}-N′-(4-chlorophenyl)thiourea]"
127 to 129 °C,,≤ 5 µM,≤ 5 µM,"CN(CCNC(=S)Nc1ccc(N(C)C)cc1)CCNc1cc(N2CCCC2)nc(N2CCCC2)n1 [Example 76, N-[4-(dimethylamino)phenyl]-N′-{2-[{2-[(2,6-dipyrrolidin-1-ylpyrimidin-4-yl)amino]ethyl}(methyl)amino]ethyl}thiourea]"
203 to 205 °C,≤ 5 µM,≤ 5 µM,≤ 5 µM,"CN(CCNc1cc(N2CCCC2)nc(N2CCCC2)n1)CCNS(=O)(=O)c1cccc(C(F)(F)F)c1 [Example 88, N-{2-[{2-[(2,6-dipyrrolidin-1-ylpyrimidin-4-yl)amino]ethyl}(methyl)amino]ethyl}-3-(trifluoromethyl)benzenesulfonamide]"
116 to 118 °C,≤ 5 µM,≤ 5 µM,≤ 5 µM,"CN(CCNC(=S)Nc1ccc(-n2cccn2)cc1)CCNc1cc(N2CCCC2)nc(N2CCCC2)n1 [Example 48, N-{2-[{2-[(2,6-dipyrrolidin-1-ylpyrimidin-4-yl)amino]ethyl}(methyl)amino]ethyl}-N′-[4-(1H-pyrazol-1-yl)phenyl]thiourea]"
146 to 148 °C,,≤ 5 µM,≤ 5 µM,"CN(CCNC(=S)Nc1ccc(Cl)cc1)CCNc1cc(N2CCC2)nc(N2CCC2)n1 [Example 75, N-(4-chlorophenyl)-N′-{2-[{2-[(2,6-diazetidin-1-ylpyrimidin-4-yl)amino]ethyl}(methyl)amino]ethyl}thiourea]"

# Source: patent US20100137275A1 (IPSEN PHARMA S.A.S., priority 2007, published 2010)
